Laboratory results: patent publication US3989746A, “Substituted naphthyl anthranilic acids” (Ikeda Mohando Co., Ltd., priority 1972, dated 1976)

Legend:
Carragheenin foot edema = test: Carragheenin foot edema; format: in vivo, rats (male, Wister type); details: Rattus norvegicus; 100 mg/Kg oral, 1 h before carragheenin; foot volume 3 h after injection; read-out: Anti-Inflammatory Effect Control Ratio, Carragheenin Foot Edema
Experimental: a. Carragheenin food edema
The test was conducted according to the method of C. […] Groups of rats (male rats of the Wister type having a body weight of 140-170 g), each group consisting of 5 to 11 rats, were caused to abstain from food for 16 hours, and a 4% gum arabic suspension of a test compound was orally administered to the rats in an amount of 100 mg/Kg. of the test compounds. Immediately, rats were allowed to drink 5 ml of purified water. […] After 3 hours had passed from the injection, the volume of the right foot was measured again to determine the increase of the volume of the right foot. In control groups, only a 4% gum arabic liquor free of a test compound was orally administered, and subsequent procedures were conducted similarly to determine the increase of the volume of the right foot. The carragheenin foot edema control ratio was calculated according to the following formula: [formula] wherein C indicates the foot volume increase in the control group and D indicates the foot volume increase in the test compound-administered group.

Ultraviolet erythema = test: Ultraviolet erythema; format: in vivo, guinea pigs (male, Hartley type); details: Cavia porcellus, light or radiation study; 10 mg/Kg oral, 1 h before irradiation; read 3 h after irradiation; read-out: Anti-Inflammatory Effect Control Ratio, Ultraviolet Erythema
Experimental: The test was conducted according to a modification of the method of C. […] Groups of guinea pigs (male guinea pigs of the Hartley type having a body weight of 300 to 450 g), each group consisting of 5 to 10 guinea pigs, were employed for the test. Hairs were removed from backs of the guinea pigs by an electric hair-clipper and a depilatory agent. The guinea pigs were caused to abstain from food for 18 to 19 hours, and a test compound was orally administered in an amount of 10 mg/Kg in the form suspended in a 4% gum arabic liquor. In the case of control groups, only a 4% gum arabic liquor was administered. An adhesive plaster according to the Japanese pharmacopoeia, on which three small holes having a diameter of 5 mm were opened, was applied to the hair-removed portion of the back. […] When 3 hours had passed from the irradiation, the degree of the formation of erythema was determined. One point was given to the guinea pig on which a definite round erythema was formed, a point of 0.5 was given to the guinea pig on which formation of erythema was observed but its contour was not definite, and a point of 0 was given to the guinea pig on which no erythema was formed. Total points were calculated in both the test compound-administered group and the control group, and the control ratio was calculated from these total points. [formula]

Adjuvant arthritis = test: Adjuvant arthritis; format: in vivo, rats (female, Wister type); details: Rattus norvegicus, 552 h; 9 mg/Kg per day oral for 25 days; foot volume on 23rd day from adjuvant injection; read-out: Anti-Inflammatory Effect Control Ratio, Adjuvant Arthritis
Experimental: With respect to the foregoing compounds, anti-inflammatory effects against carragheenin foot edema, ultraviolet erythema and adjuvant arthritis were tested by using rate according to the following methods to obtain results shown below.
The test was conducted according to a modification of the method of B. B. Newbould (Brit. J. Pharmacol., 21, 127 (1963)). Groups of female rats of the Wister type having a body weight of 180 - 240 g, each group consisting of 4 to 8 rats, were tested. 0.05 ml of an adjuvant (formed by suspending 5 mg of dead tuberculous bacillus, Aoyama B strain, in 1 ml of fluid paraffin according to the Japanese pharmacopoeia) was hypodermically injected in the right foot heel of each rat. A test compound was orally administered in a dosage of 9 mg/Kg per day in the form suspended in a 5% gum arabic liquor continuously for 25 days from one day before the injection of the adjuvant. In the case of the control group, only a 5% gum arabic liquor was continuously administered in the same manner. The volume of the right foot was measured 1 day before the injection of the adjuvant and on the 23rd day from the injection of the adjuvant with respect to each group. Thus, the increase of the foot volume was calculated in either the test compound-administered group or the control group, and the ratio of control of the adjuvant arthritis was calculated according to the following formula: [formula] in which C is the increase of the volume of the right foot in the control group and D indicates the increase of the volume of the right foot in the test compound-administered rat group.

inflammatory pain = test: Analgesic effect on inflammatory pain (modified Randall and Selitto); format: in vivo, rats (male, Wister type); details: 100 mg/Kg oral, 1 hour before carragheenin; pain measured 3 hours after injection
Experimental: Groups of male rats of the Wister type having a body weight of about 150 g were tested, each group consisting of 5 rats. The rats were caused to abstain from food overnight, and 0.05 ml of a 1% carragheenin solution was hypodermically injected into the right hind leg of each rat. […] The test compound was orally administered in a dosage of 100 mg/Kg 1 hour before the injection of carragheenin. [formula]

in vivo [1] = details: mouse, in vivo, po
Experimental: (§1) With respect to the foregoing test compounds, the acute toxicity was examined by employing mice according to the following method.
(§2) Groups of male mice of the dd type having a body weight of 18 to 22 g, each, group consisting of 5 mice, were tested to determine the acute toxicity. The test compound was orally administered in a dosage indicated in Table 3a in the form suspended in 5% gum arabic liquor. The determination was conducted 7 days after the administration. Further, the LD50 values were calculated according to the method of Lichfield-Wilcoxon.

male mice = test: in vivo; details: 7 days
Experimental: as §1, §2

in vivo [2] = details: rat, po

SMILES: O=C(O)c1ccccc1Nc1cccc(C(F)(F)F)c1 [Compound F, flufenamic acid, reference compound]
- inhibition in vivo at 100 mg/kg (Carragheenin foot edema): 60.7%
- inhibition in vivo at 10 mg/kg (Ultraviolet erythema): 60%
- inhibition in vivo at 9 mg/kg (Adjuvant arthritis): 72.4%
- Analgesic Coefficient (inflammatory pain): 1.42
- LD50 at 168 h (in vivo [1]): 545 mg/kg
- Number of Dead Mice/Number of Mice Tested (male mice; 1 g/kg oral): 5 / 5
- Number of Dead Mice/Number of Mice Tested (male mice; 2 g/kg oral): 5 / 5
- LD50 (in vivo [2]): 270 mg/kg
